Four compounds from EP0414931B1, “Hypotensive agent” (TANABE SEIYAKU CO., LTD., priority 1989, dated 1991) can be followed below.

Assay [1] concerns established-SHR. The assay can be described thus: Antihypertensive activity in SHR in the established hypertension condition (tail-cuff method). Format: in vivo, rats. The settings on record: for Systolic blood pressure: 100 mg/kg/day orally once a day for 3 weeks, established-SHR 18 weeks old. As to the method:
(§1) A suspension of the test compound (1) in water containing a small amount of Tween 80 was administered orally in a volume of 10 ml/kg (a dose of the test compound: 100 mg/kg/day) once a day for 4 weeks to SHR (5 weeks old, weight; about 100 g, 10 rats/group) in the test compound-administered group. On the other hand, the same amount of water containing a small amount of Tween 80 was administered to the rats in control group instead of the suspension of the test compound (1). The systolic blood pressure of rats of the both groups was measured once a week until the fifth week by the tail-cuff method.
Using the SHR being in the established hypertension (established-SHR, 18 weeks old, weight; 300 to 375 g, 8 rats/group), the same procedures were carried out as Experiment 3 except that the period of administration of the test compound (1) was 3 weeks, and the systolic blood pressure was measured until the third week after administration.

Assay [2] has as its system DOCA-salt rats. Kind of assay: Antihypertensive activity on progressive hypertension in DOCA-salt rats (tail-cuff method). Format: in vivo, male SD rats. The following applies: for Systolic blood pressure: 50 mg/kg/day orally once a day for 4 weeks. As to the method: (§2) A left kidney was taken out from male SD rats (6 weeks old, weight; about 200 g, 10 rats/group), and 1 week later, silicon resin containing 150 mg/kg of deoxycorticosterone acetic acid (DOCA) was embedded in subcutaneous tissue at the back of each rat under ether anesthesia. After operation, the rats were provided with water containing 1 % sodium chloride and 0.2 % potassium chloride as drinking water in order to produce DOCA-salt rats. From the next day after operation of embedding the silicon resin containing DOCA, a suspension of the test compound (I) in water containing a small amount of Tween 80 was administered orally in a volume of 10 ml/kg (a dose of the test compound: 50 mg/kg/day) once a day for 4 weeks in the test compound-administered group. On the other hand, the same amount of water containing a small amount of the Tween 80 was administered in the control group instead of the suspension of the test compound (1). The systolic blood pressure of rats in the both groups was measured once a week until the fourth week by the tail-cuff method.

Assay [3] relates to SHR. The assay can be described thus: Antihypertensive activity in SHR, repeated administration (tail-cuff method). Type of assay: in vivo, rats. The settings on record: for Systolic blood pressure: SHR 5 weeks old. On the procedure: as §1
Assay [4] has as its system SHR. Kind of assay: Hypotensive activity in SHR by single administration of test compound (tail-cuff method). Format: in vivo, rats. The following applies: SHR about 40 weeks old, fasted overnight; for rate of change of the blood pressure: 200 mg/kg orally, single dose, 2 hours after administration against before administration; for decrease of the systolic blood pressure: 200 mg/kg orally once, 2 hours after administration in comparison with before administration. As to the method:
The phenoxyacetic acid derivatives (I) and pharmaceutically acceptable salts thereof, which are the active ingredient for use in the preparation of the hypotensive agent have an excellent hypotensive activity.
A suspension of a test compound in water containing a small amount of Tween 80 was administered orally in a volume of 1 ml/100 g of rat's weight (a dose of the test compound: 200 mg/kg) to SHR (about 40 weeks old, 4 to 6 rats/group) fasted overnight. The blood pressure before and after administration of the test compound were measured noninvasively by the tail-cuff method, and estimated the rate of the change of the blood pressure 2 hours after administration of the test compound against the blood pressure before administration of the test compound. In both of test compound No. (1) and No. (2), the rate of change of the blood pressure was about -13 %.

The test system of assay [5] is established DOCA-salt hypertensive rats. The assay can be described thus: Antihypertensive activity in DOCA-salt rats in the established hypertension condition (tail-cuff method). Type of assay: in vivo. On the procedure: as §2, §1
The DOCA-salt loaded rats being in the stable hypertensive condition were obtained by feeding the DOCA-salt loaded rats used in Experiment 2 with tap water instead of aqueous salt solution for 6 weeks. Using these established DOCA-salt hypertensive rats (8 rats/group), the same experiments were carried out as Experiment 3 except that the dose of the test compound (1) was 50 mg/kg/day, the period of administration was 3 weeks, and the systolic blood pressure was measured until the fourth week after administration.

Structures are written as SMILES. Marks after values point to notes of the source that are not given here.

As for `CCn1nccc1C(=O)c1ccc(OCC(=O)O)c(Cl)c1Cl` [(1), [2,3-dichloro-4-(1-ethyl-5-pyrazolylcarbonyl)phenoxy]acetic acid], the “blood pressure in comparison with control group” value is given as “decreased significantly from the first week after administration” in assay [1] (100 mg/kg/day orally for 3 weeks, result in words) and “decreased significantly from the second week after administration” in assay [5] (50 mg/kg/day orally for 3 weeks, result in words). The Systolic blood pressure is reported as 207.3 mmHg in assay [1] (day 0); 189.6* mmHg in assay [1] (day 7); 201.8* mmHg in assay [1] (day 14); 198.6* mmHg in assay [1] (day 21); 121.6 mmHg in assay [2] (day 0); 140.3 mmHg in assay [2] (day 7). Besides, the Systolic blood pressure in assay [2] (day 14) is listed as 165.0* mmHg; in assay [2] (day 21), 182.0* mmHg; in assay [2] (day 28), 193.3* mmHg; in assay [3] (day 0, 100 mg/kg/day orally once a day for 4 weeks), 131.2 mmHg; in assay [3] (day 7, 100 mg/kg/day orally once a day for 4 weeks), 141.0** mmHg; in assay [3] (day 14, 100 mg/kg/day orally once a day for 4 weeks), 161.9** mmHg. Further, the Systolic blood pressure in assay [3] (day 21, 100 mg/kg/day orally once a day for 4 weeks) is reported as 175.4** mmHg; in assay [3] (day 28, 100 mg/kg/day orally once a day for 4 weeks) it was 185.2** mmHg; in assay [3] (day 35 (one week after the 4-week dosing), 100 mg/kg/day orally), 198.4** mmHg; in assay [5] (day 0, 50 mg/kg/day orally once a day for 3 weeks), 171.1 mmHg; in assay [5] (day 7, 50 mg/kg/day orally once a day for 3 weeks) it was 167.4 mmHg; in assay [5] (day 14, 50 mg/kg/day orally once a day for 3 weeks), 168.1* mmHg. For the same compound, the Systolic blood pressure in assay [5] (day 28 (one week after the 3-week dosing), 50 mg/kg/day orally) is recorded as 170.7* mmHg. For the same compound, the “increase of blood pressure as compared with control group” value in assay [2] (50 mg/kg/day orally for 4 weeks, result in words) is on record as “inhibited significantly from the second week after administration”; in assay [3] (100 mg/kg/day orally for 4 weeks, result in words), “inhibited significantly from the first week after administration”. The “rate of change of the blood pressure” value in assay [4] is “about -13%”.

On to `CCOCn1nccc1C(=O)c1ccc(OCC(=O)O)c(Cl)c1Cl` [(2), [2,3-dichloro-4-(1-ethoxymethyl-5-pyrazolylcarbonyl)phenoxy]acetic acid], for which the “rate of change of the blood pressure” value in assay [4] was “about -13%”.

Regarding `CCn1nccc1C(=O)c1ccc(OCC(=O)O)c(Cl)c1Cl` [[2,3-dichloro-4(1-ethyl-5-pyrazolylcarbonyl)phenoxy]acetic acid], in assay [4], the “decrease of the systolic blood pressure” value was “about 13%”.

`CCOCn1nccc1C(=O)c1ccc(OCC(=O)O)c(Cl)c1Cl` [[2,3-dichloro-4-(1-ethoxymethyl-5-pyrazolylcarbonyl)phenoxy]acetic acid]: in assay [4], the “decrease of the systolic blood pressure” value was “about 13%”.
